Source: patent US12161647B2, “Treating hearing loss” (Massachusetts Eye and Ear Infirmary, priority 2012, dated 2024)

Experiments:
[1] = test system: organ of Corti explants from Pou4f3-Cre; Mos-iCsp3 double transgenic mice; assay: Organ of Corti explants after dimerizer-induced hair cell ablation; format: cell-based, mouse
Source text: For the experiments using inner ear spheres, C57BL/6 (Jackson Labs) or Math1-nGFP reporter mouse (19) (a gift from Jane Johnson, University of Texas) of both sexes were used. To create organ of Corti explants with ablated hair cells, Mos-iCsp3 mice (20) were crossed with Pou4f3-Cre mice (6) (a gift from Douglas Vetter, Tufts University). For all in vivo experiments, we used 4-week-old Cre reporter line, mT/mG (Jackson Labs), crossed to a Sox2-CreER mouse (47) (a gift from Konrad Hochedlinger, Mass General Hospital). After genotyping, double transgenic animals were used for lineage tracing. We used young adult wild-type littermates of the mT/mG; Sox2-CreER mice to prevent strain effects in the response to noise, which are known to vary depending on background (22, 48). Mice were genotyped by PCR. […]
For explants, the organs of Corti were fixed for 15 min with 4% paraformaldehyde in PBS. […] Primary antibodies were detected with secondary antibodies conjugated with Alexa 488 and 647 (Molecular Probes). The samples were stained with rhodamine phalloidin (Invitrogen) for 15 min and viewed by confocal fluorescence microscopy (TCS SP5, Leica).
Cell counting for spheres was performed with MetaMorph software. The cell number was determined from DAPI- or Hoechst-positive nuclei. […] For explants, inner hair cells, outer hair cells, and supporting cells in the outer hair cell region were counted on cochlear whole mounts. […] High-power images of the full-length cochlea or cochlear explant cultures were assembled and analyzed in PhotoShop CS4 (Adobe). ImageJ software (NIH) was used to measure the total length of cochlear whole mounts and the length of individual counted segments. The total number of inner hair cells, outer hair cells, and supporting cells in the outer hair cell region was counted in each of four cochlear segments of 1200-1400 μm (apical, mid-apical, mid-basal, and basal). Density (cells per 100 μm) was then calculated for each segment. […] The number of Sox2-lineage-positive cells identified by GFP was counted by the same method. […]

[2] = Toxicity of systemic LY411575; format: in vivo; conditions: 50 mg/kg for 5 d
Procedure: For systemic administration, LY411575 (50 mg/kg) dissolved in 0.5% (wt/vol) methylcellulose (WAKO) was injected orally once daily for 5 consecutive d. Hearing was measured by ABR at 1 d before, 2 d, 1, 2 week, 1, 2 and 3 months after noise exposure.
Preliminary range finding experiments for drug treatment were carried out by systemic injection and were limited by toxicity. A minimal dosing regimen for an effect on the thymus weight was chosen (43, 44).

[3] = test system: deafened cochlea of Sox2-CreER; mT/mG mice; assay: In vivo lineage tracing of Sox2-positive supporting cells after round window administration; set-up: species or system mouse; conditions: one month after LY411575 treatment, left ear; none in control ears
Source text: For the experiments using inner ear spheres, C57BL/6 (Jackson Labs) or Math1-nGFP reporter mouse (19) (a gift from Jane Johnson, University of Texas) of both sexes were used. To create organ of Corti explants with ablated hair cells, Mos-iCsp3 mice (20) were crossed with Pou4f3-Cre mice (6) (a gift from Douglas Vetter, Tufts University). For all in vivo experiments, we used 4-week-old Cre reporter line, mT/mG (Jackson Labs), crossed to a Sox2-CreER mouse (47) (a gift from Konrad Hochedlinger, Mass General Hospital). After genotyping, double transgenic animals were used for lineage tracing. We used young adult wild-type littermates of the mT/mG; Sox2-CreER mice to prevent strain effects in the response to noise, which are known to vary depending on background (22, 48). Mice were genotyped by PCR. All protocols were approved by the Institutional Animal Care and Use Committee of Massachusetts Eye and Ear Infirmary or the by the ethics committee of Keio University Union on Laboratory Animal Medicine, in compliance with the Public Health Service policy on humane care and use of laboratory animals.
4-week-old mice were exposed free-field, awake and unrestrained, in a small reverberant chamber (22). Acoustic trauma was produced by a 2 h exposure to an 8-16 kHz octave band noise presented at 116 dB SPL. […]

C[C@H](NC(=O)[C@@H](O)c1cc(F)cc(F)c1)C(=O)N[C@@H]1C(=O)N(C)c2ccccc2-c2ccccc21 [LY411575, N-2((2S)-2-(3,5-difluorophenyl)-2-hydroxyethanoyl)-N1-((7S)-5-methyl-6-oxo-6,7-dihydro-5H-dibenzo[b,d]azepin-7-yl)-l-alaninamide]
number of inner hair cells ([1]; any group): no significant differences
number of myosin VIIa-positive (hair) cells in the outer hair cell region ([1]; hair cell-ablated explants, cultured 3 d, p<0.05): increased
number of Sox2-positive (supporting) cells ([1]; mid-apex and mid-base of the cochlea, p<0.05): decrease
side-effects in treated mice [2]: significant side-effects
thymus total number of cells decreased to [2]: 1/40
mice (of 12) that could be tested for ABR at 3 months; the rest died within the first week ([2]; deaths due to severe diarrhea and weight loss): 6 mice
thymus double positive fraction of CD4 and CD8 after treatment ([2]; decreased from 78.6%): 1.23%
weight loss in surviving mice ([2]; in 3 d): approximately 15%
spleen finding ([2]; in a week): severe atrophy
myosin VIIa-positive cells also expressing GFP (Sox2 lineage) [3]: numerous
